Source: ChEMBL document CHEMBL1158740, “Oxylipins arabidopsides C and D from Arabidopsis thaliana” (2005)

Test system: Lepidium sativum
Experiment: Inhibition of Lepidium sativum cress root growth at 5X10'-5 mol/L after 40 hrs
Type: functional

| Compound | inhibition at 50 µM [%] |
| --- | --- |
| CC/C=C\CC1C(=O)C=CC1CCCCCCCC(=O)O (cis isomer) | 50 |
| CC/C=C\C[C@H]1C(=O)C=C[C@H]1CCCCCCCC(=O)OC[C@H](CO[C@@H]1O[C@H](CO)[C@H](O)[C@H](O)[C@H]1O)OC(=O)CCCCC[C@@H]1C=CC(=O)[C@@H]1C/C=C\CC [ARABIDOPSIDE A] | 30 |
| CC/C=C\C[C@H]1C(=O)C=C[C@H]1CCCCCCCC(=O)OC[C@H](CO[C@@H]1O[C@H](CO)[C@H](O)[C@H](O)[C@H]1O)OC(=O)CCCCCCC[C@@H]1C=CC(=O)[C@@H]1C/C=C\CC [ARABIDOPSIDE B] | 30 |
| CC/C=C\CC1C(=O)C=CC1CCCCCCCC(=O)OCC(CO[C@@H]1O[C@H](CO[C@H]2O[C@H](CO)[C@H](O)[C@H](O)[C@H]2O)[C@H](O)[C@H](O)[C@H]1O)OC(=O)CCCCCCCC1C=CC(=O)C1C/C=C\CC (stereo not given in full) [Arabidopside D] | 30 |
| CC/C=C\C[C@H]1C(=O)CC[C@@H]1CC(=O)O [JASMONIC ACID] | 50 |
